{"source": "ChEMBL document CHEMBL1134714", "about": "“Spirocyclic nonpeptide glycoprotein IIb-IIIa antagonists. Part 1: design of potent and specific 3,9-diazaspiro[5.5]undecanes” (Bioorg Med Chem Lett, 2001)", "key": {"[1]": {"target": "Integrin alpha-V/beta-3 (Homo sapiens, UniProt P05106+P06756)", "sequence (P05106 27-788 limits assumed)": "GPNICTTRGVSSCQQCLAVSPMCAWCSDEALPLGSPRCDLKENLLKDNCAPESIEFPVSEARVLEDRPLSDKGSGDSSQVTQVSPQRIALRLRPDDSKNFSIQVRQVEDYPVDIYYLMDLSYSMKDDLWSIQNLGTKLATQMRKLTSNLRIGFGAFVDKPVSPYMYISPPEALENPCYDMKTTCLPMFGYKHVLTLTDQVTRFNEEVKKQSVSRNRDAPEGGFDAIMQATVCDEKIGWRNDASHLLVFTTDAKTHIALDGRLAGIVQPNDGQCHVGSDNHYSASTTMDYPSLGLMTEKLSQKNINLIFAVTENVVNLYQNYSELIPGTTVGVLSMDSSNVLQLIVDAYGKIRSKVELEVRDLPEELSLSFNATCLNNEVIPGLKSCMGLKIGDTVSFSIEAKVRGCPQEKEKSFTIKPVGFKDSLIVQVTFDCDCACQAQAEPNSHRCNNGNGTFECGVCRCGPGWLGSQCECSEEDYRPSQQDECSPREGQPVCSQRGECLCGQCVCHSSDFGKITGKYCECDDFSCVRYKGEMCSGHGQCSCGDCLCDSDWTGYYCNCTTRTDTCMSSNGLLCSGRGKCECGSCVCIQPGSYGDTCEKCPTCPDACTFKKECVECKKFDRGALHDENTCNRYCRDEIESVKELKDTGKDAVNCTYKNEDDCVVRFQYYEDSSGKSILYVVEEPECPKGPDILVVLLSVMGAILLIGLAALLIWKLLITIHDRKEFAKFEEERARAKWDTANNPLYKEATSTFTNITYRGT", "sequence (P06756 31-889 limits assumed)": "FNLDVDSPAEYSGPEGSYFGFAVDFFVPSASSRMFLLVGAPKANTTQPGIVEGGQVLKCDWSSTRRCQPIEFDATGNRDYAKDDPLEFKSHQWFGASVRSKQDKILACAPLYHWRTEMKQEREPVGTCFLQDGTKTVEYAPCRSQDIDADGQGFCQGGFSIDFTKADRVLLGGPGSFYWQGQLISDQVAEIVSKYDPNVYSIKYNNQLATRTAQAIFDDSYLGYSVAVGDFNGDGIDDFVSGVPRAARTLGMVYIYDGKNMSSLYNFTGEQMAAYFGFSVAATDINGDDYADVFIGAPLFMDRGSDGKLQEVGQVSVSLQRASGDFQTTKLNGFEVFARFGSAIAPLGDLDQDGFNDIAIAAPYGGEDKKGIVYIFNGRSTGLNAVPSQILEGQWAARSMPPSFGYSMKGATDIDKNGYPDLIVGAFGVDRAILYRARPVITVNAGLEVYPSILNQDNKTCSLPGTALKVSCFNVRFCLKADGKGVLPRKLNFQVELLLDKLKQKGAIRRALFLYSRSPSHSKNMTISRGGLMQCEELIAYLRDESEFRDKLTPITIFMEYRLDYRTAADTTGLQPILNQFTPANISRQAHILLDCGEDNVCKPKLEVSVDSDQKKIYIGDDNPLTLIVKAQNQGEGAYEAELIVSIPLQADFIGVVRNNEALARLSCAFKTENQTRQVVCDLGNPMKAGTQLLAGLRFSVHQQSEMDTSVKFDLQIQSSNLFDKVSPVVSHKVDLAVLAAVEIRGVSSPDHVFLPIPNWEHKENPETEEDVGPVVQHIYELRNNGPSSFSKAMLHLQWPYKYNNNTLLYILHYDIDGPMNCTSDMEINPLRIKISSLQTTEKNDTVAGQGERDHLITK", "sequence (P06756 891-1048 limits assumed)": "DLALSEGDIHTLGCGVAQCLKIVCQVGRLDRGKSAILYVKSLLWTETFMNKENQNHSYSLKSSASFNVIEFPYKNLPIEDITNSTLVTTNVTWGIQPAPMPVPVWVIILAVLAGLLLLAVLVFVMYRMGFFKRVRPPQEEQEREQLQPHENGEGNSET", "assay": "Inhibitory concentration against alphaV-beta3 integrin", "type": "protein-complex assay"}, "[2]": {"species": "Homo sapiens", "assay": "Inhibition of aggregation of ADP-stimulated human platelets", "type": "functional"}, "[3]": {"target": "Integrin alpha-IIb/beta-3 (Homo sapiens, UniProt P05106+P08514)", "sequence (P05106 27-788 limits assumed)": "as the sequence (P05106 27-788 limits assumed) above", "sequence (P08514 32-887 limits assumed)": "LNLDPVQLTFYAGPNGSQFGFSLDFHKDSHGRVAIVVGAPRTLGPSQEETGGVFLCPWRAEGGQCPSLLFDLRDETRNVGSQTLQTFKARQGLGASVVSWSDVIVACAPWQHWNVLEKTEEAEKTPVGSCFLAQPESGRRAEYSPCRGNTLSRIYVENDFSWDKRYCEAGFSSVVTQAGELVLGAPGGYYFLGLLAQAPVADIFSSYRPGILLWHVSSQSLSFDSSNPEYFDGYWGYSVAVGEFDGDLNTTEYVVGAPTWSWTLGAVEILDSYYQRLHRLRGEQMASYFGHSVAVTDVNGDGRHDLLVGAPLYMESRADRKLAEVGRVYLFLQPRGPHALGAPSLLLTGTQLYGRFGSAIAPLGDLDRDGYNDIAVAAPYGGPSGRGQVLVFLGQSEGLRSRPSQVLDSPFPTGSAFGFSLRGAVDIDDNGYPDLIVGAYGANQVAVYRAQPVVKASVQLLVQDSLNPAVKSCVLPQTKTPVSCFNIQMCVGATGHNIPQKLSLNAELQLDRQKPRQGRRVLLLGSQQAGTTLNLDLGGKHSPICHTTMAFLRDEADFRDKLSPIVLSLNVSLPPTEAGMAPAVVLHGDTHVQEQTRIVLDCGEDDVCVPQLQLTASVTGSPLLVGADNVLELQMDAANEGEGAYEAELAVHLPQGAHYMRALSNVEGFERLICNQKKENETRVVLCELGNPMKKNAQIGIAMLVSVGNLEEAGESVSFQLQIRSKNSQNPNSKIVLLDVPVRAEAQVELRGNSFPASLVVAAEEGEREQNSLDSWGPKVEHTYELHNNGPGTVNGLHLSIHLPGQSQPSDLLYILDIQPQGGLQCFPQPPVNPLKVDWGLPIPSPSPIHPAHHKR", "sequence (P08514 891-1039 limits assumed)": "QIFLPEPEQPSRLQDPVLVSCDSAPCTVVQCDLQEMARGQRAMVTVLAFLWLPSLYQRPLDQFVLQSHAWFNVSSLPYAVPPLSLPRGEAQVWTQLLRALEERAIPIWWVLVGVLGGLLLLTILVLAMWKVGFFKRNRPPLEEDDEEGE", "assay": "Inhibition of binding of fibrinogen to purified human GPIIb-IIIa in ELISA", "type": "protein-complex assay"}, "[4]": {"assay": "Oral bioavailability of compound in Sprague Dawley rats", "type": "ADME, organism-based", "conditions": "rat, in vivo"}}}
{"smiles": "Cc1noc(C)c1S(=O)(=O)N[C@@H](CNC(=O)N1CCC2(CC1)CCN(c1ccncc1)CC2)C(=O)O", "values": [{"measurement": "IC50", "setting": "[1]", "value": "> 100", "unit": "µM"}, {"measurement": "IC50", "setting": "[2]", "value": 0.039, "unit": "µM"}]}
{"smiles": "Cc1ccc(S(=O)(=O)N[C@@H](CCC(=O)N2CCC3(CC2)CCN(c2ccncc2)CC3)C(=O)O)cc1", "values": [{"measurement": "IC50", "setting": "[1]", "value": "> 100", "unit": "µM"}, {"measurement": "IC50", "setting": "[2]", "value": 0.078, "unit": "µM"}]}
{"smiles": "O=C(O)CCCC(=O)N1CCC2(CC1)CCN(c1ccncc1)CC2", "values": [{"measurement": "IC50", "setting": "[1]", "value": "> 100", "unit": "µM"}, {"measurement": "IC50", "setting": "[2]", "value": 5.08, "unit": "µM"}]}
{"smiles": "O=C(O)COC1CCN(C(=O)N2CCC3(CC2)CCN(c2ccncc2)CC3)CC1", "values": [{"measurement": "IC50", "setting": "[3]", "value": 0.21, "unit": "µM"}, {"measurement": "IC50", "setting": "[1]", "value": "> 100", "unit": "µM"}, {"measurement": "IC50", "setting": "[2]", "value": 2.65, "unit": "µM"}]}
{"smiles": "CCCCS(=O)(=O)N[C@@H](CCC(=O)N1CCC2(CC1)CCN(c1ccncc1)CC2)C(=O)O", "values": [{"measurement": "IC50", "setting": "[3]", "value": 0.023, "unit": "µM"}, {"measurement": "IC50", "setting": "[1]", "value": "> 100", "unit": "µM"}, {"measurement": "IC50", "setting": "[2]", "value": 0.768, "unit": "µM"}]}
{"smiles": "Cc1noc(C)c1S(=O)(=O)N[C@@H](CCC(=O)N1CCC2(CC1)CCN(c1ccncc1)CC2)C(=O)O", "values": [{"measurement": "bioavailability", "setting": "[4]", "value": 7.3, "unit": "%"}, {"measurement": "IC50", "setting": "[1]", "value": "> 100", "unit": "µM"}, {"measurement": "IC50", "setting": "[2]", "value": 0.021, "unit": "µM"}]}
{"smiles": "N=C(N)c1ccc(C(=O)N2CCC3(CCN(C(=O)CCCC(=O)O)CC3)CC2)cc1", "values": [{"measurement": "IC50", "setting": "[1]", "value": "> 100", "unit": "µM"}, {"measurement": "IC50", "setting": "[2]", "value": 10.3, "unit": "µM"}]}
{"smiles": "O=C(O)CCCCC(=O)N1CCC2(CC1)CCN(c1ccncc1)CC2", "values": [{"measurement": "IC50", "setting": "[1]", "value": "> 100", "unit": "µM"}, {"measurement": "IC50", "setting": "[2]", "value": 4.54, "unit": "µM"}]}
{"smiles": "CCCCOC(=O)N[C@@H](CCC(=O)N1CCC2(CC1)CCN(c1ccncc1)CC2)C(=O)O", "values": [{"measurement": "IC50", "setting": "[3]", "value": 0.004, "unit": "µM"}, {"measurement": "IC50", "setting": "[1]", "value": "> 100", "unit": "µM"}, {"measurement": "IC50", "setting": "[2]", "value": 0.722, "unit": "µM"}]}
{"smiles": "N=C(N)c1ccc(C(=O)N2CCC3(CCN(C(=O)CC(=O)O)CC3)CC2)cc1", "values": [{"measurement": "IC50", "setting": "[3]", "value": 9.7, "unit": "µM"}, {"measurement": "IC50", "setting": "[1]", "value": "> 100", "unit": "µM"}, {"measurement": "IC50", "setting": "[2]", "value": 9.3, "unit": "µM"}]}
{"smiles": "O=C(O)CCCCCC(=O)N1CCC2(CC1)CCN(c1ccncc1)CC2", "values": [{"measurement": "IC50", "setting": "[3]", "value": 0.27, "unit": "µM"}, {"measurement": "IC50", "setting": "[1]", "value": "> 100", "unit": "µM"}, {"measurement": "IC50", "setting": "[2]", "value": 4.55, "unit": "µM"}]}
{"smiles": "N=C(N)c1ccc(C(=O)N2CCC3(CCN(C(=O)CCC(=O)O)CC3)CC2)cc1", "values": [{"measurement": "IC50", "setting": "[1]", "value": "> 100", "unit": "µM"}, {"measurement": "IC50", "setting": "[2]", "value": 13.8, "unit": "µM"}]}
{"smiles": "O=C(O)CC(=O)N1CCC(C(=O)N2CCC3(CC2)CCN(c2ccncc2)CC3)CC1", "values": [{"measurement": "IC50", "setting": "[3]", "value": 0.043, "unit": "µM"}, {"measurement": "IC50", "setting": "[1]", "value": "> 100", "unit": "µM"}, {"measurement": "IC50", "setting": "[2]", "value": 1.17, "unit": "µM"}]}
{"smiles": "N=C(N)c1ccc(N2CCC3(CCN(CCC(=O)O)CC3)CC2)cc1", "values": [{"measurement": "IC50", "setting": "[3]", "value": 0.16, "unit": "µM"}, {"measurement": "IC50", "setting": "[1]", "value": "> 100", "unit": "µM"}, {"measurement": "IC50", "setting": "[2]", "value": 1.15, "unit": "µM"}]}
{"smiles": "N=C(N)c1ccc(C(=O)N2CCC3(CCN(C(=O)CCCCC(=O)O)CC3)CC2)cc1", "values": [{"measurement": "IC50", "setting": "[3]", "value": "> 100", "unit": "µM"}, {"measurement": "IC50", "setting": "[1]", "value": "> 100", "unit": "µM"}, {"measurement": "IC50", "setting": "[2]", "value": 18.8, "unit": "µM"}]}
{"smiles": "O=C(O)CCCCCCC(=O)N1CCC2(CC1)CCN(c1ccncc1)CC2", "values": [{"measurement": "IC50", "setting": "[1]", "value": "> 100", "unit": "µM"}, {"measurement": "IC50", "setting": "[2]", "value": 17.8, "unit": "µM"}]}
{"smiles": "O=C(N[C@@H](CCC(=O)N1CCC2(CC1)CCN(c1ccncc1)CC2)C(=O)O)OCc1ccccc1", "values": [{"measurement": "IC50", "setting": "[1]", "value": "> 100", "unit": "µM"}, {"measurement": "IC50", "setting": "[2]", "value": 4.58, "unit": "µM"}]}
